What was measured:
Caco-2 cells = assay: ROS determination (flow cytometry); assay type: cell-based, human; conditions: Caco-2, 48 h, 0, 7.5, 1.5, and 30 μM
Experimental: Biosciences, San Jose, CA, USA)
The intracellular ROS generation was evaluated using The Total Reactive Oxygen Species
(ROS) Assay Kit. Caco2 cells (5x10^5 per well) were seeded in 6-well plates and were incubated for 24 h in a 37°C incubator with 5% CO2. Then cells were treated with compound 3 ([…]) for 48 h to induce production of ROS. Cells were harvested and incubated with 10 […] H2DCFDA for 30 min at 37°C incubator with 5% CO2, followed by resuspending three times with pre-warmed HBSS (2000 rpm×3 min). Total ROS levels in live cells were measured using a flow cytometry (BD Biosciences, San Jose, CA, USA).

EB + CT-DNA adduct = assay: EB displacement (competitive fluorescence emission quenching); assay type: binding; conditions: EB 5 μM + CT-DNA 25 μM
Experimental: The competitive emission quenching experiment was carried out using a well-known intercalating agent and fluorescent probe for DNA, ethidium bromide (EtBr).[83] The compound in varying concentrations (0–150) was added to the [EB (5 μM) + CT-DNA (25 μM)] adduct. The excitation wavelength was fixed to 510 nm, and the emission spectra were recorded (λem = 500–700 nm). The quenching efficiency of the compound was analyzed using the Stern–Volmer and Scatchard equations, and the Stern–Volmer (quenching) constant, Ksv, the bimolecular quenching rate constant, kq, binding constant, Kbin, and the number of binding sites per nucleotide, n, were calculated.[84]
Absorption spectral studies […]
sufficiently free of protein. The DNA concentration per nucleotide was determined by […]
sample solutions to eliminate the absorbance of CT-DNA. […]
mixture was allowed to incubate for 5 minutes before the absorption spectrum was recorded.
The intrinsic binding constant Kb of compound was calculated by using Wolfe-Shimmer […]
Fluorescence spectral studies
The fluorescence quenching experiments were performed for additional support for binding of […]
EB+CT-DNA solution. The fluorescence spectra of 200 μL/well solutions in a 96-well plate
were recorded with 510 nm excitation and the emission spectra of constant [EB+CT-DNA] with
varying the compound concentration were recorded (λ em =500–700). […]

LNCaP = assay: MTT assay; assay type: cell-based, human; conditions: for IC50: Homo sapiens, LNCaP
Experimental: (§1) Human cancer cell lines (MDA-MB-231, LNCaP, Caco-2) and a human healthy cell line (HEK-293) were obtained from the European Collection of Cell Cultures. The cells were incubated in a humidified incubator (37 °C, 5% CO2) and cultured under standard conditions in Dulbecco’s modified Eagle medium (DMEM), 10% heat-inactivated fetal bovine serum, 100 U mL^–1 penicillin, 100 U mL^–1 streptomycin, and 4 mM L-glutamine. […] A cell culture medium was used to make further dilutions, while keeping the equivalent of DMF below 0.5% of the total volume.[94] […]
(§2) 7. Cell Viability Inhibition Assay
(§3) MDA-MB-231, LNCaP, Caco-2 and HEK-293 cells (5x10^3 per well) seeded in 96-well plates to assess cell viability by the 3-[4,5-dimethylthiazol-2-yl]-2,5-diphenyltetrazolium bromide (MTT) assay for 24 h at 37°C. Then cells were treated with compound 3 at different concentrations (3-100 µM) at 100μl/well. In parallel, the traditional anticancer agent cisplatin and etoposid was used as positive controls under identical conditions. After 24, 48 and 72 h incubation, 5 mg/ml MTT solution (20 μl/well) was added and cultured for another 4 h. Then, the supernatant was discarded and dimethyl sulfoxide was added (100 μl/well). The absorbance (A) was measured spectrophotometrically at 540 nm by a Microplate Reader (SpectraMax i3x).
(§4) A graph was plotted between the concentrations of the extract versus the percent viability. The […]
(§5) calculated from graph. All assays were performed in three replicates per concentration level. 11 […]

MDA-MB-231 = assay: MTT assay; assay type: cell-based, human; conditions: for IC50: Homo sapiens
Experimental: as §1, §2, §3, §4, §5

HEK-293 = assay: MTT assay; assay type: cell-based, human; conditions: Homo sapiens, HEK293
Experimental: as §1, §2, §3, §4, §5

[1] = 48 h, SI = IC50 on normal cells/IC50 on cancer cells

## O=Cc1ccc(OCc2cn(-c3ccc(Cl)c(Cl)c3)nn2)cc1O [Compound 3, 4-((1-(3,4-Dichlorophenyl)-1H-1,2,3-triazol-4-yl)methoxy)-2-hydroxybenzaldehyde]
Caco-2 cells
  ROS production (fluorescence intensity): increased the fluorescence intensity
other
  melting point: 144 to 145 °C
EB + CT-DNA adduct; compound 0–150 μM, λex 510 nm, emission 602 nm
  Ksv (Stern–Volmer quenching constant): 4.13 × 10^3 M^–1
EB + CT-DNA adduct; Scatchard equation
  Kbin (binding constant): 3.45 × 10^4 M^–1
LNCaP; [1]
  SI HEK-293/LNCap: 1.43
LNCaP; 24 h
  IC50: 44.82 ± 0.09 µM
LNCaP; 48 h
  IC50: 17.1 ± 0.26 µM
LNCaP; 72 h
  IC50: 10.05 ± 0.03 µM
LNCaP; LNCap cells
  SI, times higher than cisplatin: 8 times
MDA-MB-231; [1]
  SI HEK-293/MDA-MB-231: 2.3
MDA-MB-231; MDA-MB-231, 24 h
  IC50: 65.03 ± 0.31 µM
MDA-MB-231; MDA-MB-231, 48 h
  IC50: 10.64 ± 0.03 µM
MDA-MB-231; MDA-MB-231, 72 h
  IC50: 8.39 ± 0.04 µM
HEK-293; HEK-293, 24 h
  IC50: 43.95 ± 0.2 µM
HEK-293; HEK-293, 48 h
  IC50: 24.44 ± 0.13 µM
HEK-293; HEK-293, 72 h
  IC50: 17.09 ± 0.08 µM

— article PMC10483525, “Synthesis, Structural Investigations, DNA/BSA Interactions, Molecular Docking Studies, and Anticancer Activity of a New 1,4-Disubstituted 1,2,3-Triazole Derivative” (ACS Omega, 2023)
